Experimental data reported in PubChem BioAssay (NCI).
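Interpolation was linear, between the two tested concentrations surrounding the appropriate level; five concentrations were tested over 48 hours in 96-well plates. The concentration for full growth arrest is given as TGI.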

Tests used:
Assay in all cases: NCI anticancer screen, dose series, 48 h
OVCAR-3 ovarian = test system: OVCAR-3 ovarian
MDA-MB-435 = test system: MDA-MB-435
CAKI-1 renal = test system: CAKI-1 renal
SF-539 CNS = test system: SF-539 CNS
TK-10 renal = test system: TK-10 renal
HOP-92 NSCLC = test system: HOP-92 NSCLC
EKVX NSCLC = test system: EKVX NSCLC
SF-295 CNS = test system: SF-295 CNS
U251 CNS = test system: U251 CNS
SNB-75 CNS = test system: SNB-75 CNS
COLO 205 colon = test system: COLO 205 colon
DU-145 prostate = test system: DU-145 prostate
NCI-H23 lung = test system: NCI-H23 lung
NCI-H226 lung = test system: NCI-H226 lung
M14 melanoma = test system: M14 melanoma
UO-31 renal = test system: UO-31 renal
OVCAR-8 ovarian = test system: OVCAR-8 ovarian
OVCAR-4 ovarian = test system: OVCAR-4 ovarian
IGROV1 ovarian = test system: IGROV1 ovarian
HT29 colon = test system: HT29 colon
PC-3 prostate = test system: PC-3 prostate
SK-MEL-28 melanoma = test system: SK-MEL-28 melanoma
SK-MEL-5 melanoma = test system: SK-MEL-5 melanoma
MDA-MB-231 breast = test system: MDA-MB-231 breast
HCT-15 colon = test system: HCT-15 colon
A498 renal = test system: A498 renal
SW-620 colon = test system: SW-620 colon
NCI/ADR-RES ovarian = test system: NCI/ADR-RES ovarian
SN12C renal = test system: SN12C renal
ACHN renal = test system: ACHN renal
OVCAR-5 ovarian = test system: OVCAR-5 ovarian
SF-268 CNS = test system: SF-268 CNS
A549 NSCLC = test system: A549 NSCLC
SNB-19 CNS = test system: SNB-19 CNS
MDA-N = test system: MDA-N
RXF 393 renal = test system: RXF 393 renal
KM12 colon = test system: KM12 colon
HCT-116 colon = test system: HCT-116 colon
MCF7 breast = test system: MCF7 breast
SR leukemia = test system: SR leukemia
LOX IMVI melanoma = test system: LOX IMVI melanoma
K-562 leukemia = test system: K-562 leukemia
HS 578T breast = test system: HS 578T breast
NCI-H522 lung = test system: NCI-H522 lung
MALME-3M melanoma = test system: MALME-3M melanoma
T-47D breast = test system: T-47D breast
HOP-62 NSCLC = test system: HOP-62 NSCLC
SK-OV-3 ovarian = test system: SK-OV-3 ovarian
HL-60(TB) leukemia = test system: HL-60(TB) leukemia
CCRF-CEM leukemia = test system: CCRF-CEM leukemia
UACC-257 melanoma = test system: UACC-257 melanoma
RPMI-8226 leukemia = test system: RPMI-8226 leukemia
786-0 renal = test system: 786-0 renal
HCC-2998 colon = test system: HCC-2998 colon
SK-MEL-2 melanoma = test system: SK-MEL-2 melanoma

SMILES: COc1cc2c(cc1OC)C1C[C@]3(CCN1CC2)C(=O)N(c1ccccc1)C(=O)N3C(C)=O (some centres undefined)
- TGI (OVCAR-3 ovarian): > 200000 nM
- TGI (MDA-MB-435): > 200000 nM
- TGI (CAKI-1 renal): > 200000 nM
- TGI (SF-539 CNS): > 200000 nM
- TGI (TK-10 renal): > 200000 nM
- TGI (HOP-92 NSCLC): > 200000 nM
- TGI (EKVX NSCLC): > 200000 nM
- TGI (SF-295 CNS): > 200000 nM
- TGI (U251 CNS): > 200000 nM
- TGI (SNB-75 CNS): > 200000 nM
- TGI (COLO 205 colon): > 200000 nM
- TGI (DU-145 prostate): > 200000 nM
- TGI (NCI-H23 lung): > 200000 nM
- TGI (NCI-H226 lung): > 200000 nM
- TGI (M14 melanoma): > 200000 nM
- TGI (UO-31 renal): > 200000 nM
- TGI (OVCAR-8 ovarian): > 200000 nM
- TGI (OVCAR-4 ovarian): > 200000 nM
- TGI (IGROV1 ovarian): > 200000 nM
- TGI (HT29 colon): > 200000 nM
- TGI (PC-3 prostate): > 200000 nM
- TGI (SK-MEL-28 melanoma): > 200000 nM
- TGI (SK-MEL-5 melanoma): > 200000 nM
- TGI (MDA-MB-231 breast): > 200000 nM
- TGI (HCT-15 colon): > 200000 nM
- TGI (A498 renal): > 200000 nM
- TGI (SW-620 colon): > 200000 nM
- TGI (NCI/ADR-RES ovarian): > 200000 nM
- TGI (SN12C renal): > 200000 nM
- TGI (ACHN renal): > 200000 nM
- TGI (OVCAR-5 ovarian): > 200000 nM
- TGI (SF-268 CNS): > 200000 nM
- TGI (A549 NSCLC): > 200000 nM
- TGI (SNB-19 CNS): > 200000 nM
- TGI (MDA-N): > 200000 nM
- TGI (RXF 393 renal): > 200000 nM
- TGI (KM12 colon): > 200000 nM
- TGI (HCT-116 colon): > 200000 nM

SMILES: CC1=C(CO)C2=C(C)C3(CC3)[C@@](C)(O)C(=O)C2=C1
- TGI (OVCAR-3 ovarian): 735 nM
- TGI (MCF7 breast): 1870 nM
- TGI (MDA-MB-435): 5810 nM
- TGI (CAKI-1 renal): 760 nM
- TGI (SF-539 CNS): 371 nM
- TGI (TK-10 renal): 1130 nM
- TGI (HOP-92 NSCLC): 639 nM
- TGI (EKVX NSCLC): 535 nM
- TGI (SNB-75 CNS): 473 nM
- TGI (COLO 205 colon): 298 nM
- TGI (SR leukemia): > 100000 nM
- TGI (LOX IMVI melanoma): 3140 nM
- TGI (NCI-H23 lung): 284 nM
- TGI (NCI-H226 lung): 528 nM
- TGI (M14 melanoma): 698 nM
- TGI (OVCAR-8 ovarian): 631 nM
- TGI (OVCAR-4 ovarian): 703 nM
- TGI (IGROV1 ovarian): 529 nM
- TGI (K-562 leukemia): > 100000 nM
- TGI (HS 578T breast): 1510 nM
- TGI (HT29 colon): 1120 nM
- TGI (PC-3 prostate): 1310 nM
- TGI (SK-MEL-28 melanoma): 1440 nM
- TGI (SK-MEL-5 melanoma): 374 nM
- TGI (NCI-H522 lung): 682 nM
- TGI (MALME-3M melanoma): 494 nM
- TGI (T-47D breast): 2480 nM
- TGI (MDA-MB-231 breast): 1340 nM
- TGI (HOP-62 NSCLC): 400 nM
- TGI (HCT-15 colon): 5170 nM
- TGI (A498 renal): 507 nM
- TGI (SK-OV-3 ovarian): 926 nM
- TGI (SW-620 colon): > 30400 nM
- TGI (HL-60(TB) leukemia): 1790 nM
- TGI (NCI/ADR-RES ovarian): 698 nM
- TGI (CCRF-CEM leukemia): > 28600 nM
- TGI (UACC-257 melanoma): 487 nM
- TGI (SN12C renal): 5210 nM
- TGI (ACHN renal): 1520 nM
- TGI (OVCAR-5 ovarian): 553 nM
- TGI (RPMI-8226 leukemia): > 81600 nM
- TGI (786-0 renal): 474 nM
- TGI (SF-268 CNS): 2570 nM
- TGI (HCC-2998 colon): 329 nM
- TGI (A549 NSCLC): 1640 nM
- TGI (SNB-19 CNS): 10600 nM
- TGI (MDA-N): 3250 nM
- TGI (RXF 393 renal): 159 nM
- TGI (KM12 colon): 2810 nM
- TGI (HCT-116 colon): 504 nM
- TGI (SK-MEL-2 melanoma): 367 nM
